Data on 128 compounds can be found in the OPERA property sets (Mansouri et al. 2018).

Each structure is given as a SMILES string.

By logP is commonly meant a log measure of how a compound divides between an organic and an aqueous phase. Low values mean a more hydrophilic compound, high ones a more lipophilic compound. As for `O=c1cc(-c2ccc([N+](=O)[O-])o2)sc(=O)[nH]1`, the logP stood at 0.55. For `Nc1nc(N)nc(-c2cc(F)ccc2Cl)n1` the value was 1.38; for `CCNC(=O)CNC(=O)C=[N+]=[N-]`, -0.62; for `CCCCCCCCCCOn1c(=O)[nH]c(C)c(Br)c1=O`, 4.65. For `CNC1=NC(=O)C(=CC=Cc2ccc([N+](=O)[O-])o2)S1` the value was 1.35.

As to `CN(C)c1nc2ccccc2o1`, the logP was determined as 2.1. With `O=C1C(O)=C(CC=C(Cl)Cl)C(=O)c2ccccc21` the figure was 3.1; with `O=[N+]([O-])C=Cc1cccc(Cl)c1`, 2.57; with `OCC1OC(OC2CCCCC2)C(O)C(O)C1O` (stereo not drawn), -0.63. With `COc1cc(Cc2cnc(N)nc2N)cc2c1OCO2` the figure was 1.38; with `CNC(=O)c1ccccc1/N=N/N(C)C`, 1.83. For `Cc1ccccc1C(=N)c1ccccc1` the value was 3.21; for `Cn1c(C(O)CO)cnc1[N+](=O)[O-]` (stereo not drawn), -0.89. With `COc1nnc(C(C)C)c(=O)n1N`, the logP is -0.06.

In turn, `O=C(O)C1CCc2ccccc2O1` (stereo not drawn) displayed a logP of 1.9. For `Cc1ccc(OC2OC(CO)C(O)C(O)C2O)cc1` (stereo not drawn) the value was -0.16; for `CCOC(=O)C(=Cc1ccccc1OC)C(=O)OCC`, 3.29.

For `CCCNP(=O)(OC)SC` (stereo not drawn), the logP turned out to be 0.65. For `NC(=O)c1cccs1` the value was 0.52; for `CCOP(=O)(OCC)Oc1ccc(SC)c(C)c1`, 3.28. For `CCCSc1nnc(C(C)C)c(=O)n1N` the value was 2.12; for `CCCCN(C)CCS(=O)(=O)c1cc(OC)c(OC)c(OC)c1`, 2.05. Regarding `CS(=O)(=O)c1cnc2ccccc2n1`, the logP worked out at 0.79. With `CC1(C)SC2C(NC(=O)C(NS(C)(=O)=O)c3ccccc3)C(=O)N2C1C(=O)O` (stereo not drawn) the figure was 0.95.

Turning to `Nc1cccc2nccnc12`, the logP was determined as 1.29. For `COC12C(COC(N)=O)C3=C(C(=O)C(C)=C(Nc4ncc(C)s4)C3=O)N1CC1NC12` (stereo not drawn) the value was 1.16; for `O=C1CCC(=O)N1c1ccc(F)cc1`, 0.29. Turning to `CN(C)C(=O)Oc1ccc([N+](=O)[O-])cc1`, the logP stood at 1.5. Regarding `CC(C)Cc1nnc(N)o1`, the logP amounted to 0.4. For `O=C1CCC(=O)N1c1ccccc1Br` the value was 0.65; for `CCc1cnc(C=Cc2ccc([N+](=O)[O-])o2)nc1`, 1.55. With `Nc1nc(N)nc(-c2c(Cl)cccc2Cl)n1`, the logP worked out at 1.38.

With `COc1ccc(Cc2cnc(N)nc2N)cc1Nc1ccccc1`, the lipophilicity (logP) amounted to 2.88.

In turn, `CN(C)C(=O)CCc1ccco1` had a logP of 0.62. With `CS(=O)(=O)N(c1ccccc1)S(C)(=O)=O` the figure was 0.62; with `CNC=CC(C)c1ccccn1` (stereo not drawn), 1.13. With `O=C1CN=C(c2cccc(Br)c2)c2cc(Br)ccc2N1` the figure was 3.88; with `CS(=O)(=O)NN=Cc1ccccc1`, 1.2. For `CCCC1=Nc2cc(Cl)ccc2S(=O)(=O)N1` the value was 2.04. `CCCCCCN(SN(C)C(=O)ON=C(C)SC)C(=O)c1ccccc1` returned a logP of 4.2. With `COc1cc(Cc2cnc(N)nc2N)cc(OC)c1Br` the figure was 2.01; with `Cc1ccc(C(C)C)c(OC2OC(CO)C(O)C(O)C2O)c1` (stereo not drawn), 1.07. The compound `CCCCCCNC(=O)NN` had a logP of 0.46. For `CCCCC1OC(=O)c2cc(Cl)ccc21` (stereo not drawn) the value was 3.53; for `Cc1cccc(C)c1NC(=O)CN(C)C`, 0.94; for `CC12CC3(C)CC(C)(C1)CC(N)(C2)C3`, 4.01. As to `CSC(C)=NOC(=O)N(C)SN(C)C(=O)c1ccc(C)cc1`, the logP stood at 2.5. For `CCSCC1=Nc2cc(Cl)ccc2S(=O)(=O)N1` the value was 2.26; for `CC1=Nc2ccc(Br)cc2S(=O)(=O)N1`, 1.37; for `COC(=O)C(C#N)=NNc1ccccc1`, 2.59.

Compound `CN(C)N=Nc1ccc(S(N)(=O)=O)cc1` registered a logP of 1.06.

As to `O=NN(CCCl)C(=O)NC1CCC(O)CC1` (stereo not drawn), the logP came out at 1.11. For `CCC(C)C1=Nc2ccc(Cl)cc2S(=O)(=O)N1` (stereo not drawn) the value was 2.47; for `CN1C(=O)OC(c2ccccc2)C1=O` (stereo not drawn), 1.06. For `COc1cc(Cc2cnc(N)nc2N)cc(O)c1O` the value was -0.31.

`O=[N+]([O-])C=Cc1ccc([N+](=O)[O-])cc1` had a logP of 1.89. For `N#Cc1c(N)sc2ccccc12` the value was 2.17; for `NNC(=O)NCc1ccccc1`, -0.22; for `O=C(O)COc1cc(F)cc(I)c1`, 2.42. `FC(F)(F)c1nc2c(Br)c(Br)c(Br)cc2[nH]1` returned a logP of 4.08.

`Cc1c(N(C)C)cc(Cc2cnc(N)nc2N)cc1N(C)C` gave a logP of 2.06.

For `CCCCCc1ccc(O)cc1`, the logP was determined as 4.06. In the case of `COC(=O)C(C#N)=NNc1ccc(C(F)(F)F)cc1[N+](=O)[O-]`, the logP turned out to be 3.44.

In turn, `CC1C2CCC3C(O)C2(CC(O)C2(O)C1CC(O)C2(C)C)CC3(C)O` (stereo not drawn) registered a logP of 1.51. With `O=C1CN=C(c2cccc(Cl)c2)c2cc(Br)ccc2N1` the figure was 3.63. `CC1COCCN1N=O` (stereo not drawn) registered a logP of -0.03. `NC(=S)c1ncccn1`: the logP was -0.34. Regarding `OCCCCCn1nnc2ccccc21`, the logP turned out to be 1.51. In the case of `COC(=O)C(C#N)=NNc1ccc(C(F)(F)F)cc1`, the logP came to 3.79. With `NNC(=O)c1cccc(N)c1` the figure was -0.86; with `CNC(=O)Oc1ccccc1SC`, 1.51; with `Nc1nnc(S(N)(=O)=O)s1`, -0.9. For `COP(=O)(NCC(C)C)Oc1cc(Cl)c(Cl)cc1Cl` (stereo not drawn) the value was 3.86. For `COCN1C(=O)CN=C(c2ccccc2)c2cc(N)ccc21` the value was 1.32. On to `Cc1cccc(N=NN(C)C)c1`, for which the logP is 2.85. For `Oc1ccc(C(c2ccc(O)cc2)c2cccnc2)cc1` the value was 3.13.

In the case of `Nc1nc(N)nc(-c2ccc(Cl)cc2Cl)n1`, the logP came out at 2.07. As to `CCCCOc1cccc(N2C(N)=NC(N)=NC2(C)C)c1`, the logP worked out at 2.03. Consider `COC12C(COC(N)=O)C3=C(C(=O)C(C)=C(Nc4nccs4)C3=O)N1CC1NC12` (stereo not drawn), for which the logP was determined as 0.62. For `O=[N+]([O-])c1nccn1CC(O)CCl` (stereo not drawn) the value was 0.15. For `Clc1cccc(NC2=NCCN2)c1Cl` the value was 1.94; for `CCCCCCCCCCCC[n+]1cc(C)cc(C)c1.[I-]`, 1.91. For `CCSc1nnc(C(C)C)c(=O)n1N` the value was 1.52. Compound `CC(=O)Nc1cc(OCC(=O)O)ccc1Cl` showed a logP of 0.75. With `O=C(NC(CO)C(O)c1ccc([N+](=O)[O-])cc1)c1ccccc1` (stereo not drawn) the figure was 1.63; with `CC(C)N1CCOC(c2cccc(Cl)c2)C1` (stereo not drawn), 3.27; with `CSC1=NC(=O)C(=Cc2ccc([N+](=O)[O-])o2)S1`, 1.41. `CCc1cnc2cccc(C)n2c1=O` came in with a logP of 1.79. For `CC(=O)N(C)SN(C)C(=O)Oc1cccc2c1OC(C)(C)C2` the value was 2.7.

For `CCCCCCCCCCCCCC[n+]1ccccc1C.[I-]`, the logP was determined as 2.27. For `CCS(=O)(=O)c1cc(OC)c(OC)c(OC)c1` the value was 1.05; for `CC(C)(C)CC(N)C(=O)O` (stereo not drawn), -1.42; for `CC(=O)NC1=C(Nc2ccccc2)C(=O)c2ccccc2C1=O`, 1.73. The compound `CN(C)C(=O)Nc1cccc(O)c1` displayed a logP of 0.51.

`CSc1ccc2c(c1)C(c1ccccc1)=NCC(=O)N2` registered a logP of 2.92. For the compound `CC1=Nc2cc(N)c(Cl)cc2S(=O)(=O)N1`, the logP was found to be 0.63. For `CCC1C(=O)NC(=O)N(C)C1=O` (stereo not drawn) the value was 0.15; for `COc1cc(-n2nc(C)cc2OC)nc(C)n1`, 1.54. `CCOc1ccc2nc(S(=O)(=O)NC)sc2c1` showed a logP of 2.59. In the case of `COc1cccc(N2C(=O)CCC2=O)c1`, the logP is 0.18.

In turn, `NC1CC2OC1c1ccccc12` (stereo not drawn) yielded a logP of 0.75. On to `CCOc1ncnc(NS(=O)(=O)c2ccc(N)cc2)c1OC`, for which the logP stood at 1.18. For `Cc1ccccc1NC(=O)C1CNCCN1` (stereo not drawn) the value was 0.26; for `COc1ccc(Cc2ccccc2C(N)=O)cc1`, 1.63; for `COc1cc(S(=O)(=O)CCO)cc(OC)c1OC`, 0.18. With `COc1cccc(OC2OC(CO)C(O)C(O)C2O)c1` (stereo not drawn) the figure was -0.52; with `COc1cc(Cc2cnc(N)nc2N)cc(OC)c1N`, 0.83; with `Cc1ccc(N2C(N)=NC(N)=NC2(C)C)cc1`, 0.85. `Clc1cc(Cl)c(N=C2NCCN2)cc1Cl` had a logP of 2.11.

The compound `CNP(=O)(OC)Oc1ccc([N+](=O)[O-])cc1` (stereo not drawn) registered a logP of 1.27. For `ClC1C(Cl)C(Br)C(Cl)C(Br)C1Cl` (stereo not drawn), the logP was determined as 3.98. With `CN(C)C(=O)Oc1ccc(Cl)cc1` the figure was 2.27. Take `CON=CCCc1ccccc1`: the logP was 2.14.

Take `COc1ccccc1C(=O)N1CCN(C)CC1`: the logP was found to be 0.29. `CCCc1nnc(SC)n(N)c1=O` displayed a logP of 0.93. For `O=C1NC(=S)SC1=Cc1ccc([N+](=O)[O-])o1` the value was 0.74; for `CSC(C)=NOC(=O)N(C)SN(C)C(=O)c1cccc(Cl)c1`, 2.7; for `O=[N+]([O-])c1ccc(OCCn2ccnc2)cc1`, 1.69.

The compound `COc1cc(Cc2cnc(N)nc2N)ccc1C` displayed a logP of 2.14. With `O=[N+]([O-])c1ccc(Oc2ccc(C(F)(F)F)cc2[N+](=O)[O-])cc1` the figure was 3.65; with `COc1cc(C)nc2ccccc12`, 2.81; with `CCCCCC[n+]1ccc(C)c(C)c1.[I-]`, -1.51. Turning to `COc1cccc(/C=C/[N+](=O)[O-])c1`, the logP was 2.37.

The compound `COCN1C(=O)CN=C(c2ccccc2F)c2cc(N)ccc21` had a logP of 1.31. `COc1cc(C)ccc1N=C1NCCN1` yielded a logP of 1.64. With `Clc1ccccc1-c1ccccc1Cl` the figure was 4.97. Regarding `CNc1nnc(C(C)C)c(=O)n1N`, the logP came to 0.3. For `O=[N+]([O-])c1cccc(C2NCCS2)c1` (stereo not drawn) the value was 1.59.
